In ChEMBL document CHEMBL1201862, “PubChem BioAssay data set” (2004):
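Step 1: Grow cells in 96-well plates. Step 2: Expose to compound for 48 hours at 5 concentrations. Step 3: Interpolate endpoints linearly; if unreached, use highest concentration. GI50 = concentration required for 50% inhibition of growth.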 Activity calls are given as the source filed them. No stated cut-off is given here; in the data, active = GI50 up to about 1.1 µM and inactive = higher.

Assays:
Experiment in all cases: NCI-60 cell line screen, 48 h
HCC 2998 = tested on: HCC 2998
NCI-H522 = tested on: NCI-H522
COLO 205 = tested on: COLO 205
SNB-19 = tested on: SNB-19
SW-620 = tested on: SW-620
SF-295 = tested on: SF-295
M19-MEL = tested on: M19-MEL
TK-10 = tested on: TK-10
CAKI-1 = tested on: CAKI-1
SK-MEL-5 = tested on: SK-MEL-5
HOP-62 = tested on: HOP-62
NCI-H460 = tested on: NCI-H460
SN12C = tested on: SN12C
OVCAR-3 = tested on: OVCAR-3
OVCAR-4 = tested on: OVCAR-4
IGROV-1 = tested on: IGROV-1
RPMI-8226 = tested on: RPMI-8226

CC(=O)Nc1ccccc1[S+]([O-])c1ccccc1 (stereo not given)
GI50 (HCC 2998): > 100 µM (inactive)
GI50 (NCI-H522): 71.8 µM (inactive)
GI50 (COLO 205): > 100 µM (inactive)
GI50 (SNB-19): > 100 µM (inactive)
GI50 (SW-620): > 100 µM (inactive)
GI50 (SF-295): > 100 µM (inactive)
GI50 (M19-MEL): > 100 µM (inactive)
GI50 (TK-10): > 100 µM (inactive)
GI50 (CAKI-1): > 100 µM (inactive)
GI50 (SK-MEL-5): > 100 µM (inactive)
GI50 (HOP-62): > 100 µM (inactive)
GI50 (NCI-H460): > 100 µM (inactive)
GI50 (SN12C): > 100 µM (inactive)
GI50 (OVCAR-3): > 100 µM (inactive)
GI50 (OVCAR-4): > 100 µM (inactive)
GI50 (IGROV-1): > 100 µM (inactive)
GI50 (RPMI-8226): > 100 µM (inactive)

CN(C)CCNC(=O)c1cccc2c1nc(-c1ccccc1)c1ccccc12
GI50 (HCC 2998): 3.82 µM (inactive)
GI50 (COLO 205): 3.48 µM (inactive)
GI50 (SNB-19): 11.3 µM (inactive)
GI50 (SW-620): 2.4 µM (inactive)
GI50 (SF-295): 4.67 µM (inactive)
GI50 (M19-MEL): 5.2 µM (inactive)
GI50 (TK-10): 3.93 µM (inactive)
GI50 (CAKI-1): 3.74 µM (inactive)
GI50 (SK-MEL-5): 2.13 µM (inactive)
GI50 (HOP-62): 4.27 µM (inactive)
GI50 (NCI-H460): 0.4 µM (active)
GI50 (SN12C): 3.01 µM (inactive)
GI50 (OVCAR-3): 8.09 µM (inactive)
GI50 (OVCAR-4): 5.45 µM (inactive)
GI50 (IGROV-1): 3.16 µM (inactive)

Cc1ccc(S(=O)(=O)n2cc(/C=C/C#N)c(/C=C/C#N)c2)cc1
GI50 (NCI-H522): > 10 µM (inactive)
GI50 (COLO 205): > 100 µM (inactive)
GI50 (SNB-19): 57.9 µM (inactive)
GI50 (SW-620): 40 µM (inactive)
GI50 (SF-295): 55.5 µM (inactive)
GI50 (M19-MEL): > 100 µM (inactive)
GI50 (TK-10): > 100 µM (inactive)
GI50 (SK-MEL-5): 39.2 µM (inactive)
GI50 (HOP-62): > 100 µM (inactive)
GI50 (NCI-H460): > 100 µM (inactive)
GI50 (SN12C): > 100 µM (inactive)
GI50 (OVCAR-3): 37.1 µM (inactive)
GI50 (OVCAR-4): 59.4 µM (inactive)
GI50 (IGROV-1): > 100 µM (inactive)
GI50 (RPMI-8226): > 100 µM (inactive)

O=C(CCc1nnc2s/c(=C\c3ccc([N+](=O)[O-])cc3)c(=O)n12)Nc1ccc(Cl)c(Cl)c1
GI50 (HCC 2998): 22.3 µM (inactive)
GI50 (NCI-H522): 17.3 µM (inactive)
GI50 (COLO 205): 28.1 µM (inactive)
GI50 (SNB-19): 72.9 µM (inactive)
GI50 (SW-620): 25.2 µM (inactive)
GI50 (SF-295): 25.1 µM (inactive)
GI50 (M19-MEL): 31.6 µM (inactive)
GI50 (TK-10): 34 µM (inactive)
GI50 (CAKI-1): 41.9 µM (inactive)
GI50 (SK-MEL-5): 58.1 µM (inactive)
GI50 (HOP-62): 20.3 µM (inactive)
GI50 (NCI-H460): 46.1 µM (inactive)
GI50 (SN12C): 25.2 µM (inactive)
GI50 (OVCAR-3): 13.1 µM (inactive)
GI50 (OVCAR-4): 18.6 µM (inactive)
GI50 (IGROV-1): 24.7 µM (inactive)
GI50 (RPMI-8226): 20.6 µM (inactive)

CCc1cc(Cc2cc(CC)c(NC(=O)C3=CC(=O)CC(c4ccc(OC)cc4)O3)c(CC)c2Cl)c(Cl)c(CC)c1NC(=O)C1=CC(=O)CC(c2ccc(OC)cc2)O1 (stereo not given)
GI50 (HCC 2998): 16.7 µM (inactive)
GI50 (COLO 205): 17.8 µM (inactive)
GI50 (SNB-19): 21.4 µM (inactive)
GI50 (SW-620): 5.9 µM (inactive)
GI50 (SF-295): 19.8 µM (inactive)
GI50 (M19-MEL): 17.3 µM (inactive)
GI50 (TK-10): 19.7 µM (inactive)
GI50 (CAKI-1): 27.7 µM (inactive)
GI50 (SK-MEL-5): 20.3 µM (inactive)
GI50 (HOP-62): 22.2 µM (inactive)
GI50 (NCI-H460): 17.7 µM (inactive)
GI50 (SN12C): 22 µM (inactive)
GI50 (OVCAR-3): 19.1 µM (inactive)
GI50 (OVCAR-4): 25.2 µM (inactive)
GI50 (IGROV-1): 22.4 µM (inactive)
GI50 (RPMI-8226): 15.5 µM (inactive)

O=C(Nc1cccc(NC(=O)c2cc(=O)c3ccccc3o2)n1)c1cc(=O)c2ccccc2o1
GI50 (HCC 2998): 60.1 µM (inactive)
GI50 (NCI-H522): 15 µM (inactive)
GI50 (COLO 205): 74.3 µM (inactive)
GI50 (SNB-19): 68.9 µM (inactive)
GI50 (SW-620): > 100 µM (inactive)
GI50 (M19-MEL): > 100 µM (inactive)
GI50 (TK-10): > 100 µM (inactive)
GI50 (CAKI-1): > 100 µM (inactive)
GI50 (SK-MEL-5): 64.9 µM (inactive)
GI50 (HOP-62): 90.8 µM (inactive)
GI50 (NCI-H460): 40.4 µM (inactive)
GI50 (OVCAR-3): 37.6 µM (inactive)
GI50 (OVCAR-4): 44.6 µM (inactive)
GI50 (IGROV-1): 38.2 µM (inactive)
GI50 (RPMI-8226): 23.3 µM (inactive)

C#CCN(C)C(=O)N(CC#C)N=O
GI50 (NCI-H522): > 100 µM (inactive)
GI50 (COLO 205): > 100 µM (inactive)
GI50 (SNB-19): > 100 µM (inactive)
GI50 (SW-620): > 100 µM (inactive)
GI50 (SF-295): > 100 µM (inactive)
GI50 (M19-MEL): > 100 µM (inactive)
GI50 (TK-10): > 100 µM (inactive)
GI50 (SK-MEL-5): > 100 µM (inactive)
GI50 (HOP-62): > 100 µM (inactive)
GI50 (NCI-H460): > 100 µM (inactive)
GI50 (SN12C): > 100 µM (inactive)
GI50 (OVCAR-3): > 100 µM (inactive)
GI50 (OVCAR-4): > 100 µM (inactive)
GI50 (IGROV-1): > 100 µM (inactive)
GI50 (RPMI-8226): > 100 µM (inactive)

N#CC(/C(=N/NC(=O)C(=O)NN)C(=O)Nc1nc([N+](=O)[O-])cs1)c1ccc(Cl)cc1 (stereo not given)
GI50 (HCC 2998): > 100 µM (inactive)
GI50 (COLO 205): > 100 µM (inactive)
GI50 (SNB-19): > 100 µM (inactive)
GI50 (SW-620): > 100 µM (inactive)
GI50 (SF-295): > 100 µM (inactive)
GI50 (M19-MEL): > 100 µM (inactive)
GI50 (TK-10): > 100 µM (inactive)
GI50 (SK-MEL-5): > 100 µM (inactive)
GI50 (HOP-62): > 100 µM (inactive)
GI50 (NCI-H460): > 100 µM (inactive)
GI50 (SN12C): > 100 µM (inactive)
GI50 (OVCAR-3): > 100 µM (inactive)
GI50 (OVCAR-4): > 100 µM (inactive)
GI50 (IGROV-1): > 100 µM (inactive)
GI50 (RPMI-8226): > 100 µM (inactive)
